Assay results published in the supplement of paper PMC10627819.

What was measured:
B. subtilis 168 [1] = experiment: fitness (endpoint OD595 vs no drug) (fraction); higher = more growth
In short: (§1)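 At 37 °C, bacteria in TSB, LB Lennox or CY were grown in 384-well plates from a starting OD595 of 0.01. OD595 was measured every 30 min for 14 h, with the first reading used as background. Fitness is the optical density at the switch to stationary phase as a fraction of the robust mean of no-drug control wells, capped at 1.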

S. aureus Newman [2] = experiment: as above
In short: as §1

S. pneumoniae D39V [3] = experiment: as above
In short: as §1

B. subtilis 168 [4] = experiment: Bliss interaction score (quartile over a dose matrix) (fitness difference); higher = more antagonism (negative = synergy)
In short: (§2)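 Fitness was OD595 at entry into stationary phase divided by the plate's robust no-drug mean and capped at 1; single-drug fitness was inferred from combination data. The Bliss score is observed minus expected (product) fitness, summarised by quartiles over technical, biological and donor/recipient replicates.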

S. aureus DSM 20231 [5] = experiment: as above
In short: as §2

S. aureus Newman [6] = experiment: as above
In short: as §2

S. pneumoniae D39V [7] = experiment: as above
In short: as §2

S. aureus DSM 20231 [8] = experiment: fitness (endpoint OD595 vs no drug) (fraction); higher = more growth
In short: as §1
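For Bliss interaction score (quartile over a dose matrix) in this document: first quartile when negative (synergy) and third quartile when positive (antagonism).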

COc1ccc(C[C@H](N)C(=O)N[C@H]2[C@@H](O)[C@H](n3cnc4c(N(C)C)ncnc43)O[C@@H]2CO)cc1 [Puromycin] + CN[C@@H]1[C@H](O[C@H]2[C@H](O[C@H]3[C@H](O)[C@@H](O)[C@H](N=C(N)N)[C@@H](O)[C@@H]3N=C(N)N)O[C@@H](C)[C@]2(O)C=O)O[C@@H](CO)[C@H](O)[C@H]1O [Streptomycin]
fitness
Settings	first compound 0.39 µg/mL	first compound 0.78 µg/mL	first compound 1 µg/mL	first compound 1.56 µg/mL	first compound 2 µg/mL	first compound 4 µg/mL
B. subtilis 168 [1], partner 2 µg/mL	0.908	0.878	–	0.796	–	–
B. subtilis 168 [1], partner 4 µg/mL	0.27	0.143	–	0.106	–	–
B. subtilis 168 [1], partner 8 µg/mL	0.0282	0.0233	–	0.0357	–	–
S. aureus Newman [2], partner 1 µg/mL	≥ 1	0.968	–	0.991	–	–
S. aureus Newman [2], partner 2 µg/mL	≥ 1	0.964	–	0.939	–	–
S. pneumoniae D39V [3], partner 2 µg/mL	–	–	0.933	–	0.914	0.739
S. pneumoniae D39V [3], partner 4 µg/mL	–	–	0.956	–	0.906	0.746
S. pneumoniae D39V [3], partner 8 µg/mL	–	–	0.876	–	0.784	0.567

S. pneumoniae D39V [3], partner 16 µg/mL, one replicate
Settings	fitness
first compound 1 µg/mL	0.748
first compound 2 µg/mL	0.643
first compound 4 µg/mL	0.254

Settings	Bliss interaction score
B. subtilis 168 [4]	-0.226
S. aureus DSM 20231 [5]	-0.193
S. aureus Newman [6]	0.0431
S. pneumoniae D39V [7]	-0.0971

O=C(O)c1cn(C2CC2)c2cc(N3CCNCC3)c(F)cc2c1=O [Ciprofloxacin] + CC1=C\[C@@H](O)CC(=O)Cc2nc(co2)C(=O)N2CCC=C2C(=O)O[C@H](C(C)C)[C@H](C)/C=C/C(=O)NC\C=C\1 [Virginiamycin M1]
fitness
Settings	partner 0.0625 µg/mL	partner 0.125 µg/mL	partner 0.25 µg/mL	partner 0.5 µg/mL	partner 1 µg/mL	partner 2 µg/mL
B. subtilis 168 [1], first compound 0.0098 µg/mL	0.941	0.896	0.859	–	–	–
B. subtilis 168 [1], first compound 0.0195 µg/mL	0.739	0.703	0.705	–	–	–
B. subtilis 168 [1], first compound 0.039 µg/mL	0.139	0.0393	0.0545	–	–	–
S. aureus Newman [2], first compound 0.0375 µg/mL	0.664	0.662	0.672	–	–	–
S. aureus Newman [2], first compound 0.075 µg/mL	0.616	0.658	0.703	–	–	–
S. aureus Newman [2], first compound 0.15 µg/mL	0.0348	0.0378	0.0632	–	–	–
S. pneumoniae D39V [3], first compound 0.125 µg/mL	–	–	–	0.969	0.96	0.909
S. pneumoniae D39V [3], first compound 0.25 µg/mL	–	–	–	0.874	0.842	0.784

fitness, one replicate
Settings	first compound 0.078 µg/mL	first compound 0.125 µg/mL	first compound 0.156 µg/mL	first compound 0.25 µg/mL	first compound 0.312 µg/mL	first compound 0.5 µg/mL
S. aureus Newman [2], partner 0.5 µg/mL	0.638	–	0.45	–	0.128	–
S. aureus Newman [2], partner 1 µg/mL	0.785	–	0.503	–	0.125	–
S. aureus Newman [2], partner 2 µg/mL	0.72	–	0.472	–	0.161	–
S. pneumoniae D39V [3], partner 0.15 µg/mL	–	0.954	–	0.894	–	0.807
S. pneumoniae D39V [3], partner 0.3 µg/mL	–	0.928	–	0.844	–	0.816

Settings	Bliss interaction score
B. subtilis 168 [4]	-0.0881
S. aureus DSM 20231 [5]	0.0396
S. aureus Newman [6]	0.0616
S. pneumoniae D39V [7]	-0.0532

O=C(O)c1cn(C2CC2)c2cc(N3CCNCC3)c(F)cc2c1=O [Ciprofloxacin] + COc1ccc(C[C@H](N)C(=O)N[C@H]2[C@@H](O)[C@H](n3cnc4c(N(C)C)ncnc43)O[C@@H]2CO)cc1 [Puromycin]
Settings	fitness
B. subtilis 168 [1], first compound 0.0098 µg/mL, partner 0.39 µg/mL	0.918
B. subtilis 168 [1], first compound 0.0098 µg/mL, partner 0.78 µg/mL	0.956
B. subtilis 168 [1], first compound 0.0098 µg/mL, partner 1.56 µg/mL	0.842
B. subtilis 168 [1], first compound 0.0195 µg/mL, partner 0.39 µg/mL	0.721
B. subtilis 168 [1], first compound 0.0195 µg/mL, partner 0.78 µg/mL	0.721
B. subtilis 168 [1], first compound 0.0195 µg/mL, partner 1.56 µg/mL	0.683
B. subtilis 168 [1], first compound 0.039 µg/mL, partner 0.39 µg/mL	0.0586
B. subtilis 168 [1], first compound 0.039 µg/mL, partner 0.78 µg/mL	0.0556
B. subtilis 168 [1], first compound 0.039 µg/mL, partner 1.56 µg/mL	0.0555
S. aureus Newman [2], first compound 0.0375 µg/mL, partner 0.39 µg/mL	0.679
S. aureus Newman [2], first compound 0.0375 µg/mL, partner 0.78 µg/mL	0.635
S. aureus Newman [2], first compound 0.0375 µg/mL, partner 1.56 µg/mL	0.651
S. aureus Newman [2], first compound 0.075 µg/mL, partner 0.39 µg/mL	0.577
S. aureus Newman [2], first compound 0.075 µg/mL, partner 0.78 µg/mL	0.522
S. aureus Newman [2], first compound 0.075 µg/mL, partner 1.56 µg/mL	0.422
S. aureus Newman [2], first compound 0.15 µg/mL, partner 0.39 µg/mL	0.0435
S. aureus Newman [2], first compound 0.15 µg/mL, partner 0.78 µg/mL	0.0274
S. aureus Newman [2], first compound 0.15 µg/mL, partner 1.56 µg/mL	0.0296
S. pneumoniae D39V [3], first compound 0.125 µg/mL, partner 1 µg/mL	0.944
S. pneumoniae D39V [3], first compound 0.125 µg/mL, partner 2 µg/mL	0.92
S. pneumoniae D39V [3], first compound 0.125 µg/mL, partner 4 µg/mL	0.492
S. pneumoniae D39V [3], first compound 0.25 µg/mL, partner 1 µg/mL	0.808
S. pneumoniae D39V [3], first compound 0.25 µg/mL, partner 2 µg/mL	0.846
S. pneumoniae D39V [3], first compound 0.25 µg/mL, partner 4 µg/mL	0.51
S. pneumoniae D39V [3], first compound 0.5 µg/mL, partner 4 µg/mL	0.347

Settings	Bliss interaction score
B. subtilis 168 [4]	-0.118
S. aureus DSM 20231 [5]	-0.135
S. aureus Newman [6]	-0.132
S. pneumoniae D39V [7]	-0.0901

Cc1ncc([N+](=O)[O-])n1CCO [Metronidazole] + COc1cc(Cc2cnc(N)nc2N)cc(OC)c1OC [Trimethoprim]
fitness, B. subtilis 168 [1], one replicate
Settings	partner 0.1 µg/mL	partner 0.125 µg/mL	partner 0.2 µg/mL	partner 0.4 µg/mL	partner 1 µg/mL	partner 2 µg/mL
first compound 0.625 µg/mL	0.832	0.747	0.759	0.572	0.419	0.373
first compound 1.25 µg/mL	0.866	0.772	0.83	0.555	0.341	0.361
first compound 2.5 µg/mL	0.956	0.785	0.828	0.578	0.396	0.44

fitness
Settings	first compound 0.625 µg/mL	first compound 1.25 µg/mL	first compound 2.5 µg/mL
B. subtilis 168 [1], partner 0.25 µg/mL	0.743	0.724	0.72
B. subtilis 168 [1], partner 0.5 µg/mL	0.568	0.531	0.471
S. aureus DSM 20231 [8], partner 0.125 µg/mL	0.704	0.744	0.749
S. aureus DSM 20231 [8], partner 0.25 µg/mL	0.607	0.619	0.652
S. aureus DSM 20231 [8], partner 1 µg/mL	0.0438	0.0565	0.0572

Settings	Bliss interaction score
B. subtilis 168 [4]	0.11
S. aureus DSM 20231 [5]	-0.0577
S. aureus Newman [6]	0.0902
S. pneumoniae D39V [7]	0.232

COc1cccc2c1C(=O)c1c(O)c3c(c(O)c1C2=O)C[C@@](O)(C(=O)CO)C[C@@H]3O[C@H]1C[C@H](N)[C@H](O)[C@H](C)O1 [Doxorubicin] + CN[C@@H]1[C@H](O[C@H]2[C@H](O[C@H]3[C@H](O)[C@@H](O)[C@H](N=C(N)N)[C@@H](O)[C@@H]3N=C(N)N)O[C@@H](C)[C@]2(O)C=O)O[C@@H](CO)[C@H](O)[C@H]1O [Streptomycin]
fitness
Settings	partner 1 µg/mL	partner 2 µg/mL	partner 4 µg/mL	partner 8 µg/mL
B. subtilis 168 [1], first compound 0.625 µg/mL	–	0.869	–	0.0284
B. subtilis 168 [1], first compound 1.25 µg/mL	–	–	–	0.0203
B. subtilis 168 [1], first compound 2.5 µg/mL	–	0.0556	0.0219	0.0198
S. aureus Newman [2], first compound 0.625 µg/mL	0.791	0.788	–	–
S. aureus Newman [2], first compound 1.25 µg/mL	0.769	0.746	–	–
S. aureus Newman [2], first compound 2.5 µg/mL	0.75	0.742	–	–
S. pneumoniae D39V [3], first compound 0.25 µg/mL	–	0.898	0.918	0.892
S. pneumoniae D39V [3], first compound 0.5 µg/mL	–	0.935	0.907	0.901
S. pneumoniae D39V [3], first compound 1 µg/mL	–	0.874	0.875	0.858

S. pneumoniae D39V [3], partner 16 µg/mL, one replicate
Settings	fitness
first compound 0.25 µg/mL	0.817
first compound 0.5 µg/mL	0.761
first compound 1 µg/mL	0.558

Settings	Bliss interaction score
B. subtilis 168 [4]	-0.355
S. aureus DSM 20231 [5]	-0.0832
S. aureus Newman [6]	-0.043
S. pneumoniae D39V [7]	0.0825
